Laboratory results reported in US6413968B1, “Treatment of myasthenia gravis by cyclic nucleotide phosphodiesterase inhibition” (priority 2000, dated 2002).

Tested on: diplopia and ptosis
Assay: Case report: patient with vertical diplopia and right ptosis treated orally
Type: in vivo, human
Description: A person presented with a three-week history of vertical diplopia that was incomitant and right ptosis.

CN(C)C(=O)Oc1ccc[n+](C)c1 [Mestinon]
relief of diplopia and ptosis (patient, three-week history of vertical diplopia and right ptosis, 60 mg three times daily): failed to relieve the diplopia or the ptosis

CCCc1nn(C)c2c(=O)[nH]c(-c3cc(S(=O)(=O)N4CCN(C)CC4)ccc3OCC)nc12 [Sildenafil]
resolution of diplopia and ptosis (same patient, after Mestinon failure, 25 mg tab four times daily): immediate resolution of dipolopia and ptosis
time to resolution of diplopia and ptosis (same patient, 25 mg tab four times daily): ≤ 24 h
